Experimental data published in patent US20050009840A1 (SUGEN, INC., priority 2003, published 2005).

Biological target: T1, Met kinase domain (GST fusion protein) (Homo sapiens, UniProt P08581)
T1 construct: Purified GST fusion protein containing the Met kinase domain
Assay: Met transphosphorylation assay (ELISA, poly(glu-tyr) substrate);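 further: Cell-free ELISA with plate-bound poly(Glu:Tyr 4:1) phosphorylated by GST-fused Met kinase domain plus ATP and Mn2+, phosphotyrosine detected by anti-phosphotyrosine antibody with HRP and ABTS read-out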
Type: biochemical
Conditions: plain numbers in column Met IC50 (μM) of Table 2; read-out: Met IC50

T1 sequence (P08581 1078-1345 limits assumed): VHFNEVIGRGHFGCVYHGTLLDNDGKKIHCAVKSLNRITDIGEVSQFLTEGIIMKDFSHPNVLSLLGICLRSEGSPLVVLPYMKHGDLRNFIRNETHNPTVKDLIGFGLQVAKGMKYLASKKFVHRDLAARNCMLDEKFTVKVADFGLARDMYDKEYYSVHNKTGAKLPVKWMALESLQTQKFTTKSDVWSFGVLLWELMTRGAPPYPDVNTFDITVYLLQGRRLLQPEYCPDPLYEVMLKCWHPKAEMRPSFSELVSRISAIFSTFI

Point of comparison: `CC(=O)N1CCN(CCNC(=O)c2cccc(-c3cnc(N)c(OC(C)c4c(Cl)cccc4Cl)c3)c2)CC1` (stereo not shown) [Example I-393, N-[2-(4-Acetyl-piperazin-1-yl)-ethyl]-3-{6-amino-5-[1-(2,6-dichloro-phenyl)-ethoxy]-pyridin-3-yl}-benzamide], IC50 0.079 µM. Against it:
- CC(Oc1cc(-c2cccc(C(=O)N3CCC(N4CCCC4)CC3)c2)cnc1N)c1c(Cl)cccc1Cl (stereo not shown) [Example I-388, (3-{6-Amino-5-[1-(2,6-dichloro-phenyl)-ethoxy]-pyridin-3-yl}-phenyl)-(4-pyrrolidin-1-yl-piperidin-1-yl)-methanone] — within 1.5-fold, 0.1 µM
- CC(Oc1cc(-c2cccc(C(=O)NCCN3CCCC3)c2)cnc1N)c1c(Cl)cccc1Cl (stereo not shown) [Example I-389, 3-{6-Amino-5-[1-(2,6-dichloro-phenyl)-ethoxy]-pyridin-3-yl}-N-(2-pyrrolidin-1-yl-ethyl)-benzamide] — 1.6-fold higher, 0.13 µM
- CC(Oc1cc(-c2cccc(C(=O)NCCN3CCOCC3)c2)cnc1N)c1c(Cl)cccc1Cl (stereo not shown) [Example I-390, 3-{6-Amino-5-[1-(2,6-dichloro-phenyl)-ethoxy]-pyridin-3-yl}-N-(2-morpholin-4-yl-ethyl)-benzamide] — 1.5-fold higher, 0.12 µM
- CC(Oc1cc(-c2cccc(C(=O)N3CCC[C@H]3CN3CCCC3)c2)cnc1N)c1c(Cl)cccc1Cl (stereo partly drawn) [Example I-391, (3-{6-Amino-5-[1-(2,6-dichloro-phenyl)-ethoxy]-pyridin-3-yl}-phenyl)-((S)-2-pyrrolidin-1-ylmethyl-pyrrolidin-1-yl)-methanone] — within 1.5-fold, 0.098 µM
- CC(Oc1cc(-c2cccc(C(=O)NCCCN3CCCC3)c2)cnc1N)c1c(Cl)cccc1Cl (stereo not shown) [Example I-392, 3-{6-Amino-5-[1-(2,6-dichloro-phenyl)-ethoxy]-pyridin-3-yl}-N-(3-pyrrolidin-1-yl-propyl)-benzamide] — within 1.5-fold, 0.072 µM
- CC(Oc1cc(-c2cccc(C(=O)NC3CCN(C)CC3)c2)cnc1N)c1c(Cl)cccc1Cl (stereo not shown) [Example I-394, 3-{6-Amino-5-[1-(2,6-dichloro-phenyl)-ethoxy]-pyridin-3-yl}-N-(1-methyl-piperidin-4-yl)-benzamide] — within 1.5-fold, 0.061 µM
- CC(Oc1cc(-c2cccc(C(=O)N3CCN(C)CC3)c2)cnc1N)c1c(Cl)cccc1Cl (stereo not shown) [Example I-395, (3-{6-amino-5-[1-(2,6-dichloro-phenyl)-ethoxy]-pyridin-3-yl}-phenyl)-(4-methyl-piperazin-1-yl)-methanone] — within 1.5-fold, 0.058 µM
- CC(Oc1cc(-c2cccc(C(=O)N3CCC[C@@H]3CN3CCCC3)c2)cnc1N)c1c(Cl)cccc1Cl (stereo partly drawn) [Example I-396, (3-{6-Amino-5-[1-(2,6-dichloro-phenyl)-ethoxy]-pyridin-3-yl}-phenyl)-((R)-2-pyrrolidin-1-ylmethyl-pyrrolidin-1-yl)-methanone] — 2.3-fold higher, 0.18 µM
- CC(Oc1cc(-c2cccc(C(=O)N3CC[C@H](N)C3)c2)cnc1N)c1c(Cl)cccc1Cl (stereo partly drawn) [Example I-397, (3-{6-Amino-5-[1-(2,6-dichloro-phenyl)-ethoxy]-pyridin-3-yl}-phenyl)-((S)-3-amino-pyrrolidin-1-yl)-methanone] — within 1.5-fold, 0.055 µM
- CC(Oc1cc(-c2cccc(C(=O)N3CC[C@@H](N)C3)c2)cnc1N)c1c(Cl)cccc1Cl (stereo partly drawn) [Example I-398, (3-{6-Amino-5-[1-(2,6-dichloro-phenyl)-ethoxy]-pyridin-3-yl}-phenyl)-((R)-3-amino-pyrrolidin-1-yl)-methanone] — within 1.5-fold, 0.072 µM
- CC(Oc1cc(-c2ccc(C(=O)NCCN3CCOCC3)cc2)cnc1N)c1c(Cl)cccc1Cl (stereo not shown) [Example I-401, 4-{6-Amino-5-[1-(2,6-dichloro-phenyl)-ethoxy]-pyridin-3-yl}-N-(2-morpholin-4-yl-ethyl)-benzamide] — within 1.5-fold, 0.073 µM
- CC(Oc1cc(-c2ccc(C(=O)NC3CCN(C)CC3)cc2)cnc1N)c1c(Cl)cccc1Cl (stereo not shown) [Example I-403, 4-{6-Amino-5-[1-(2,6-dichloro-phenyl)-ethoxy]-pyridin-3-yl}-N-(1-methyl-piperidin-4-yl)-benzamide] — within 1.5-fold, 0.062 µM
- CC(Oc1cc(-c2ccc(C(=O)N3C[C@@H](C)N[C@@H](C)C3)cc2)cnc1N)c1c(Cl)cccc1Cl (stereo partly drawn) [Example I-404, (4-{6-Amino-5-[1-(2,6-dichloro-phenyl)-ethoxy]-pyridin-3-yl}-phenyl)-((3R,5S)-3,5-dimethyl-piperazin-1-yl)-methanone] — 1.5-fold lower, 0.052 µM
- CC(=O)N1CCN(CCNC(=O)c2ccc(-c3cnc(N)c(OC(C)c4c(Cl)cccc4Cl)c3)cc2)CC1 (stereo not shown) [Example I-405, N-[2-(4-Acetyl-piperazin-1-yl)-ethyl]-4-{6-amino-5-[1-(2,6-dichloro-phenyl)-ethoxy]-pyridin-3-yl}-benzamide] — within 1.5-fold, 0.062 µM
- CC(Oc1cc(-c2ccc(C(=O)NCCCN3CCCC3)cc2)cnc1N)c1c(Cl)cccc1Cl (stereo not shown) [Example I-406, 4-{6-Amino-5-[1-(2,6-dichloro-phenyl)-ethoxy]-pyridin-3-yl}-N-(3-pyrrolidin-1-yl-propyl)-benzamide] — within 1.5-fold, 0.061 µM
- CC(Oc1cc(-c2ccc(C(=O)N3CC[C@H](N)C3)cc2)cnc1N)c1c(Cl)cccc1Cl (stereo partly drawn) [Example I-407, (4-{6-Amino-5-[1-(2,6-dichloro-phenyl)-ethoxy]-pyridin-3-yl}-phenyl)-((S)-3-aminopyrrolidin-1-yl)-methanone] — 1.6-fold lower, 0.05 µM
- CC(Oc1cc(-c2ccc(C(=O)N3CC[C@@H](N)C3)cc2)cnc1N)c1c(Cl)cccc1Cl (stereo partly drawn) [Example I-408, (4-{6-Amino-5-[1-(2,6-dichloro-phenyl)-ethoxy]-pyridin-3-yl}-phenyl)-((R)-3-amino-pyrrolidin-1-yl)-methanone] — 1.6-fold lower, 0.049 µM
- CC(Oc1cc(-c2ccc(C(=O)N3CCC(N4CCCC4)CC3)cc2)cnc1N)c1c(Cl)cccc1Cl (stereo not shown) [Example I-410, (4-{6-Amino-5-[1-(2,6-dichloro-phenyl)-ethoxy]-pyridin-3-yl}-phenyl)-(4-pyrrolidin-1-yl-piperidin-1-yl)-methanone] — within 1.5-fold, 0.055 µM
- CC(Oc1cc(-c2ccc(C(=O)N3CCN(C)CC3)cc2)cnc1N)c1c(Cl)cccc1Cl (stereo not shown) [Example I-411, (4-{6-Amino-5-[1-(2,6-dichloro-phenyl)-ethoxy]-pyridin-3-yl}-phenyl)-(4-methyl-piperazin-1-yl)-methanone] — within 1.5-fold, 0.053 µM
- CC(Oc1cc(C#CCNC(=O)N2CCC[C@H]2CN2CCCC2)cnc1N)c1c(Cl)ccc(F)c1Cl (stereo partly drawn) [Example I-412, (S)-2-Pyrrolidin-1-ylmethyl-pyrrolidine-1-carboxylic acid (3-{6-amino-5-[1-(2,6-dichloro-3-fluoro-phenyl)-ethoxy]-pyridin-3-yl}-prop-2-ynyl)-amide] — within 1.5-fold, 0.067 µM
- CC(Oc1cc(C#CCNC(=O)N2CCN(C)CC2)cnc1N)c1c(Cl)ccc(F)c1Cl (stereo not shown) [Example I-413, 4-Methyl-piperazine-1-carboxylic acid (3-{6-amino-5-[1-(2,6-dichloro-3-fluoro-phenyl)-ethoxy]-pyridin-3-yl}-prop-2-ynyl)-amide] — within 1.5-fold, 0.056 µM
- CC(Oc1cc(C#CCNC(=O)N2CCC(N3CCCC3)CC2)cnc1N)c1c(Cl)ccc(F)c1Cl (stereo not shown) [Example I-414, 4-Pyrrolidin-1-yl-piperidine-1-carboxylic acid (3-{6-amino-5-[1-(2,6-dichloro-3-fluoro-phenyl)-ethoxy]-pyridin-3-yl}-prop-2-ynyl)-amide] — within 1.5-fold, 0.058 µM
- CC(Oc1cc(C#CCNC(=O)N2C[C@@H](C)N[C@@H](C)C2)cnc1N)c1c(Cl)ccc(F)c1Cl (stereo partly drawn) [Example I-415, (3R,5S)-3,5-Dimethyl-piperazine-1-carboxylic acid (3-{6-amino-5-[1-(2,6-dichloro-3-fluoro-phenyl)-ethoxy]-pyridin-3-yl}-prop-2-ynyl)-amide] — within 1.5-fold, 0.063 µM
- CC(Oc1cc(C#CCNC(=O)NC2CCN(C)CC2)cnc1N)c1c(Cl)ccc(F)c1Cl (stereo not shown) [Example I-416, 1-(3-{6-Amino-5-[1-(2,6-dichloro-3-fluoro-phenyl)-ethoxy]-pyridin-3-yl}-prop-2-ynyl)-3-(1-methyl-piperidin-4-yl)-urea] — 1.5-fold lower, 0.051 µM
- CC(Oc1cc(C#CCNC(=O)NCCCN2CCCC2)cnc1N)c1c(Cl)ccc(F)c1Cl (stereo not shown) [Example I-417, 1-(3-{6-Amino-5-[1-(2,6-dichloro-3-fluoro-phenyl)-ethoxy]-pyridin-3-yl}-prop-2-ynyl)-3-(3-pyrrolidin-1-yl-propyl)-urea] — within 1.5-fold, 0.062 µM
- CC(Oc1cc(C#CCNC(=O)NCCN2CCCC2)cnc1N)c1c(Cl)ccc(F)c1Cl (stereo not shown) [Example I-418, 1-(3-{6-Amino-5-[1-(2,6-dichloro-3-fluoro-phenyl)-ethoxy]-pyridin-3-yl}-prop-2-ynyl)-3-(2-pyrrolidin-1-yl-ethyl)-urea] — 1.5-fold lower, 0.052 µM
- CC(Oc1cc(C#CCNC(=O)NCCN2CCOCC2)cnc1N)c1c(Cl)ccc(F)c1Cl (stereo not shown) [Example I-419] — within 1.5-fold, 0.055 µM
- CC(Oc1cc(C#CCNC(=O)NCCCN2CCOCC2)cnc1N)c1c(Cl)ccc(F)c1Cl (stereo not shown) [Example I-420, 1-(3-{6-Amino-5-[1-(2,6-dichloro-3-fluoro-phenyl)-ethoxy]-pyridin-3-yl}-prop-2-ynyl)-3-(3-morpholin-4-yl-propyl)-urea] — within 1.5-fold, 0.064 µM
- CC(Oc1cc(C#CCNC(=O)N2CCC[C@@H]2CN2CCCC2)cnc1N)c1c(Cl)ccc(F)c1Cl (stereo partly shown) [Example I-421] — within 1.5-fold, 0.071 µM
- CC(Oc1cc(C#CCN(C)C)cnc1N)c1c(Cl)ccc(F)c1Cl (stereo not shown) [Example I-422, 3-[1-(2,6-Dichloro-3-fluoro-phenyl)-ethoxy]-5-(3-dimethylamino-prop-1-ynyl)-pyridin-2-ylamine] — within 1.5-fold, 0.071 µM
- CC(Oc1cc(C#CCNC(N)=O)cnc1N)c1c(Cl)ccc(F)c1Cl (stereo not shown) [Example I-423, (3-{6-Amino-5-[1-(2,6-dichloro-3-fluoro-phenyl)-pnlethoxy]-pyridin-3-yl}-prop-2-ynyl)-area] — within 1.5-fold, 0.062 µM
- CC(Oc1cc(C#CCNC(=O)CN2CCCCC2)cnc1N)c1c(Cl)ccc(F)c1Cl (stereo not shown) [Example I-424, N-(3-{6-Amino-5-[1-(2,6-dichloro-3-fluoro-phenyl)-ethoxy]-pyridin-3-yl}-prop-2-ynyl)-2-piperidin-1- -yl-acetamide] — 4.9-fold lower, 0.016 µM
- CC(Oc1cc(C#CCNC(=O)CN2CCOCC2)cnc1N)c1c(Cl)ccc(F)c1Cl (stereo not shown) [Example I-425, N-(3-{6-Amino-5-[1-(2,6-dichloro-3-fluoro-phenyl)-ethoxy]-pyridin-3-yl}-prop-2-ynyl)-2-morpholin-4-yl-acetamide] — 2.9-fold lower, 0.027 µM
